Assay results reported in patent US5075287A, “Muramyl peptide derivatives and immunoregulating compositions containing them” (priority 1989, dated 1991).
Read-outs that look alike come from different tables or passages of the source.

Columns and labels:
[1] = tested on: influenza HA vaccine (B/Nagasaki/1/87 strain); format: in vivo, female CDF1 mice; conditions: Experiment 2, 8000-fold dilution
[2] = tested on: hepatitis B virus surface antigen (HBs); test: Hepatitis-vaccine enhancing activity (adjuvant activity): anti-HBs IgG in mouse serum by ELISA; format: in vivo, female CDF1 mice; conditions: Experiment 2, 2000-fold dilution
Procedure: A compound of the present invention was dissolved in lipidmicrosphere (1 mg/ml). On the other hand, a solution of hepatitis B virus surface antigen (HBs) in physiological saline was prepared (50 μg/ml). The above solutions in equal amounts were mixed to prepare a test solution. A control solution was prepared by the exclusion of the compound of the present invention from said test solution. A mixture of a suspension of aluminium hydroxide gel in physiological saline (1 mg/ml) and said hepatitis vaccine preparation in equal amounts was prepared as another control solution. The test solution (0.2 ml) was intraperitoneally administered to each mouse in one group consisting of seven female CDF1 mice.
Blood samples were collected from the fundus ocluli vein of each mouse every week after the administration and then centrifuged to obtain serums. Three weeks after the administration, 0.2 ml of the test liquid was intraperitoneally administered again to each mouse for secondary stimulation. Then blood collecting was conducted every week to obtain serums after the application of the secondary stimulation, in the same manner as that described above.
The amount of the IgG antibodies against the hepatitis B virus surface antigens (HBs) in the serums thus obtained was determined with an ELISA method.

[3] = 4 W (after secondary stimulation at 3 weeks)
[4] = 5 W (after secondary stimulation at 3 weeks)

Structure (SMILES)	Anti HA serum antigen value (average value ± S.D.) ([1]; 1 W) [O.D 415 nm]	Anti HA serum antigen value (average value ± S.D.) ([1]; 2 W) [O.D 415 nm]	Anti HA serum antigen value (average value ± S.D.) ([1]; 3 W) [O.D 415 nm]	Anti HA serum antigen value (average value ± S.D.) [1, 3] [O.D 415 nm]	Anti HA serum antigen value (average value ± S.D.) [1, 4] [O.D 415 nm]	Anti-HBs IgG antibody level in serum (ELISA absorbance at 415 nm) ([2]; 1 W) [O.D 415 nm]	Anti-HBs IgG antibody level in serum (ELISA absorbance at 415 nm) ([2]; 2 W) [O.D 415 nm]	Anti-HBs IgG antibody level in serum (ELISA absorbance at 415 nm) ([2]; 3 W) [O.D 415 nm]	Anti-HBs IgG antibody level in serum (ELISA absorbance at 415 nm) [2, 3] [O.D 415 nm]	Anti-HBs IgG antibody level in serum (ELISA absorbance at 415 nm) [2, 4] [O.D 415 nm]
CCCCCCCCCCCCCCCCCCCCCCCC(=O)O[C@H](CCCCCCCCCCC)CC(=O)S[C@@H]1O[C@H](COC(=O)CCCCCCCCCCCCCCCCC)[C@@H](O)[C@H](O[C@H](C)C(=O)N[C@@H](C)C(=O)N[C@H](CCC(=O)OC)C(N)=O)[C@H]1NC(C)=O [Example 28, N-[2-0-{2-Acetamido-2,3-dideoxy-6-0-octadecanoyl-1-S-((3R}-3-tetracosanoyloxytetradecanoyl)-1-thio-β-D-glucopyranos-3-Yl}-D-lactoyl]-L-alanyl-D-isoglutamine methylester]	0.008 ± 0.004	0.041 ± 0.004	0.061 ± 0.001	0.787 ± 0.018	0.779 ± 0.024	0.005 ± 0.003	0.062 ± 0.004	0.086 ± 0.004	0.611 ± 0.018	0.543 ± 0.029
CCCCCCCCCCCCCCCCCC(=O)OC[C@H]1O[C@H](OC(=O)C[C@@H](CCCCCCCCCCC)OC(=O)CCCCCCCCCCCCCCCCC)[C@H](NC(C)=O)[C@@H](O[C@H](C)C(=O)N[C@@H](C)C(=O)N[C@H](CCC(=O)OC)C(N)=O)[C@@H]1O [Example 22]	0.001 ± 0.004	0.065 ± 0.001	0.100 ± 0.003	0.411 ± 0.009	0.492 ± 0.002	0.005 ± 0.004	0.036 ± 0.007	0.053 ± 0.001	0.294 ± 0.006	0.254 ± 0.002
CCCCCCCCCCCCCCCCCC(=O)OC[C@H]1O[C@H](OC(=O)C[C@@H](CCCCCCCCCCC)OC(=O)CCCCCCCCCCCCC)[C@H](NC(C)=O)[C@@H](O[C@H](C)C(=O)N[C@@H](C)C(=O)N[C@H](CCC(=O)OC)C(N)=O)[C@@H]1O [Example 26, N-[2-0-{2-Acetamido-2,3-dideoxy-6-0-octadecanoyl-1-0-((3R)-3-tetradecanoyloxytetradecanoyl)-α-D-glucopyranos-3-yl}-D-lactoyl]-L-alanyl-D-isogluatmine methylester]	0.004 ± 0.003	0.038 ± 0.001	0.054 ± 0.001	0.208 ± 0.001	0.206 ± 0.002	0.001 ± 0.006	0.015 ± 0.006	0.032 ± 0.008	0.192 ± 0.002	0.163 ± 0.004
CCCCCCCCCCCCCCCC(=O)O[C@H](CCCCCCCCCCC)CC(=O)O[C@H]1O[C@H](CO)[C@@H](O)[C@H](O[C@H](C)C(=O)N[C@@H](C)C(=O)N[C@H](CCC(=O)OC)C(N)=O)[C@H]1NC(C)=O [Example 17, N-[2-0-{2-Acetamido-2,3-dideoxy-1-0-((3R)-3-hexadecanoyloxytetradecanoyl)-α-D-glucopyranos-3-yl}-D-lactoyl]-L-alanyl-D-isoglutamine methylester]	0.010 ± 0.002	0.122 ± 0.006	0.191 ± 0.001	0.611 ± 0.017	0.696 ± 0.014	0.001 ± 0.004	0.026 ± 0.001	0.051 ± 0.001	0.642 ± 0.021	0.615 ± 0.021
